Results on seven compounds are retold here after PubChem BioAssay AID330 (DTP/NCI, 2004).

For the test, the system named is P388 leukemia ip, CD2F1 mice, survival T/C. Description: NCI In Vivo Anticancer Drug Screen. Data for tumor model P388 Leukemia (intraperitoneal) in CD2F1 (CDF1) mice. The following applies: endpoint: median survival time, higher = longer survival. The procedure, abridged: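 Mice carrying the transplanted tumor received test compound or vehicle. Survival was recorded in each group, and the value is the treated-group measurement divided by that of the vehicle-treated control group.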

Setting [1] is: dose: 100.0 mg/kg/injection, schedule: Q04DX003 (ip), vehicle: saline.

Structures are written as SMILES. Several values for one entry are separate records, joined by “and”; a condition that tells them apart may be missing. Identical values can stand only once. Toxic doses and inconclusive results are not listed.

In the case of `O=C(O)C1(C(=O)O)CCC1.[NH2-].[NH2-].[Pt+2]`, the T/C reads like this: (dose: 6.25 mg/kg/injection, schedule: Q01DX005 (ip), vehicle: water) 152 % of control; (dose: 6.25 mg/kg/injection, schedule: Q01DX009 (ip), vehicle: water) 167 % of control; (dose: 12.5 mg/kg/injection, schedule: Q01DX001 (im), vehicle: suspension in saline) 105 % of control; (dose: 12.5 mg/kg/injection, schedule: Q01DX001 (ip), vehicle: suspension in saline) 117 % of control; (dose: 12.5 mg/kg/injection, schedule: Q01DX001 (iv), vehicle: suspension in saline) 108 % of control; (dose: 12.5 mg/kg/injection, schedule: Q01DX001 (sc), vehicle: suspension in saline) 103 % of control. Also, the T/C (dose: 12.5 mg/kg/injection, schedule: Q01DX005 (ip), vehicle: water) was 166 % of control; the T/C (dose: 12.5 mg/kg/injection, schedule: Q01DX009 (ip), vehicle: saline) is 113 % of control; the T/C (dose: 12.5 mg/kg/injection, schedule: Q01DX009 (ip), vehicle: water) is 189 % of control; the T/C (dose: 12.5 mg/kg/injection, schedule: Q04DX003 (iv), vehicle: saline) was 110 % of control; the T/C (dose: 25.0 mg/kg/injection, schedule: Q01DX001 (im), vehicle: suspension in saline) is 117 % of control; the T/C (dose: 25.0 mg/kg/injection, schedule: Q01DX001 (ip), vehicle: saline) is 107 % of control. Besides, the T/C was 121 % of control (dose: 25.0 mg/kg/injection, schedule: Q01DX001 (ip), vehicle: suspension in saline); 106 % of control (dose: 25.0 mg/kg/injection, schedule: Q01DX001 (iv), vehicle: suspension in saline); 100 % of control (dose: 25.0 mg/kg/injection, schedule: Q01DX001 (oral), vehicle: suspension in saline); 107 % of control (dose: 25.0 mg/kg/injection, schedule: Q01DX001 (sc), vehicle: suspension in saline); 194 % of control (dose: 25.0 mg/kg/injection, schedule: Q01DX005 (ip), vehicle: water); 90 % of control (dose: 25.0 mg/kg/injection, schedule: Q01DX005 (iv), vehicle: water). The T/C is 152 % of control (dose: 25.0 mg/kg/injection, schedule: Q01DX009 (ip), vehicle: saline); 112 % of control (dose: 25.0 mg/kg/injection, schedule: Q01DX009 (ip), vehicle: water); 114 % of control (dose: 25.0 mg/kg/injection, schedule: Q04DX003 (ip), vehicle: saline); 186 % of control (dose: 25.0 mg/kg/injection, schedule: Q04DX003 (ip), vehicle: water); 113 % of control (dose: 25.0 mg/kg/injection, schedule: Q04DX003 (iv), vehicle: saline); 110 % of control (dose: 50.0 mg/kg/injection, schedule: Q01DX001 (im), vehicle: suspension in saline). Moreover, the T/C was 124 % of control (dose: 50.0 mg/kg/injection, schedule: Q01DX001 (ip), vehicle: suspension in saline); 161 % of control (dose: 50.0 mg/kg/injection, schedule: Q01DX001 (ip), vehicle: water); 110 % of control (dose: 50.0 mg/kg/injection, schedule: Q01DX001 (iv), vehicle: suspension in saline); 103 % of control (dose: 50.0 mg/kg/injection, schedule: Q01DX001 (oral), vehicle: suspension in saline); 110 % of control (dose: 50.0 mg/kg/injection, schedule: Q01DX001 (sc), vehicle: suspension in saline); 100 % of control (dose: 50.0 mg/kg/injection, schedule: Q01DX009 (ip), vehicle: saline). Besides, the T/C runs as follows: (dose: 50.0 mg/kg/injection, schedule: Q04DX003 (ip), vehicle: water) 217 % of control; (dose: 50.0 mg/kg/injection, schedule: Q04DX003 (iv), vehicle: saline) 117 % of control; (dose: 50.0 mg/kg/injection, schedule: Q04DX003 (oral), vehicle: saline) 116 % of control; (dose: 100.0 mg/kg/injection, schedule: Q01DX001 (im), vehicle: suspension in saline) 111 % of control; (dose: 100.0 mg/kg/injection, schedule: Q01DX001 (ip), vehicle: water) 164 % of control; (dose: 100.0 mg/kg/injection, schedule: Q01DX001 (iv), vehicle: saline) 105 % of control. The T/C reads like this: (dose: 100.0 mg/kg/injection, schedule: Q01DX001 (iv), vehicle: suspension in saline) 115 % of control; (dose: 100.0 mg/kg/injection, schedule: Q01DX001 (iv), vehicle: water) 93 % of control; (dose: 100.0 mg/kg/injection, schedule: Q01DX001 (sc), vehicle: suspension in saline) 120 % of control; under setting [1], 170 % of control; (dose: 100.0 mg/kg/injection, schedule: Q04DX003 (ip), vehicle: water) 96 % of control; (dose: 100.0 mg/kg/injection, schedule: Q04DX003 (iv), vehicle: saline) 123 % of control. Besides, the T/C (dose: 100.0 mg/kg/injection, schedule: Q04DX003 (oral), vehicle: saline) was 114 % of control; the T/C (dose: 200.0 mg/kg/injection, schedule: Q01DX001 (im), vehicle: suspension in saline) was 105 % of control; the T/C (dose: 200.0 mg/kg/injection, schedule: Q01DX001 (iv), vehicle: suspension in saline) was 100 % of control; the T/C (dose: 200.0 mg/kg/injection, schedule: Q01DX001 (oral), vehicle: saline) is 104 % of control; the T/C (dose: 200.0 mg/kg/injection, schedule: Q01DX001 (oral), vehicle: suspension in saline) is 110 % of control; the T/C (dose: 200.0 mg/kg/injection, schedule: Q01DX001 (sc), vehicle: suspension in saline) was 107 % of control. The T/C (dose: 200.0 mg/kg/injection, schedule: Q04DX003 (oral), vehicle: saline) is 117 % of control; the T/C (dose: 400.0 mg/kg/injection, schedule: Q01DX001 (iv), vehicle: saline) was 91 % of control; the T/C (dose: 400.0 mg/kg/injection, schedule: Q01DX001 (oral), vehicle: saline) is 100 % of control; the T/C (dose: 400.0 mg/kg/injection, schedule: Q01DX001 (oral), vehicle: suspension in saline) is 101 % of control; the T/C (dose: 400.0 mg/kg/injection, schedule: Q04DX003 (oral), vehicle: saline) was 122 % of control.

On to `CCN(CC)CCNc1ccc(COC(C)=O)c2sc3ccccc3c(=O)c12`, for which the T/C (dose: 6.25 mg/kg/injection, schedule: Q01DX005 (ip), vehicle: saline with Tween-80) was 109 % of control and 123 % of control; the T/C (dose: 12.5 mg/kg/injection, schedule: Q01DX005 (ip), vehicle: saline with Tween-80) is 121 % of control; the T/C (dose: 50.0 mg/kg/injection, schedule: Q01DX005 (ip), vehicle: saline with Tween-80) was 118 % of control.

Consider `c1cc(-c2nn[nH]n2)ccc1NNc1ccc(-c2nn[nH]n2)cc1`, for which the T/C is, setting by setting: (dose: 50.0 mg/kg/injection, schedule: Q01DX001 (ip), vehicle: Klucel (hydroxypropylcellulose) (HPC)) 101 % of control; (dose: 100.0 mg/kg/injection, schedule: Q01DX001 (ip), vehicle: Klucel (hydroxypropylcellulose) (HPC)) 105 % of control; (dose: 200.0 mg/kg/injection, schedule: Q01DX001 (ip), vehicle: Klucel (hydroxypropylcellulose) (HPC)) 98 % of control.

In the case of `COC(=O)CCC(N=C(OC)c1ccccc1)C(=O)OC` (stereo unspecified), the T/C (dose: 50.0 mg/kg/injection, schedule: Q01DX005 (ip), vehicle: Klucel (hydroxypropylcellulose) (HPC)) was 98 % of control; the T/C (dose: 100.0 mg/kg/injection, schedule: Q01DX005 (ip), vehicle: Klucel (hydroxypropylcellulose) (HPC)) is 103 % of control; the T/C (dose: 200.0 mg/kg/injection, schedule: Q01DX005 (ip), vehicle: Klucel (hydroxypropylcellulose) (HPC)) was 101 % of control.

As for `COc1cc(CC(NC(C)=O)C(=O)O)cc(OC)c1OC` (stereo unspecified), the T/C is 105 % of control (dose: 100.0 mg/kg/injection, schedule: Q01DX001 (ip), vehicle: saline); 99 % of control (dose: 200.0 mg/kg/injection, schedule: Q01DX001 (ip), vehicle: saline); 100 % of control (dose: 400.0 mg/kg/injection, schedule: Q01DX001 (ip), vehicle: saline).

Take `CCCCCC12OCC(C)(C)N1O2` (stereo unspecified): the T/C (dose: 60.0 mg/kg/injection, schedule: Q01DX005 (ip), vehicle: saline) is 100 % of control; the T/C (dose: 120.0 mg/kg/injection, schedule: Q01DX005 (ip), vehicle: saline) is 109 % of control; the T/C (dose: 240.0 mg/kg/injection, schedule: Q01DX005 (ip), vehicle: saline) was 103 % of control.

As to `O=C(Cc1ccccn1)c1cccnc1`, the T/C reads like this: under setting [1], 94 % of control; (dose: 200.0 mg/kg/injection, schedule: Q04DX003 (ip), vehicle: saline) 96 % of control; (dose: 400.0 mg/kg/injection, schedule: Q04DX003 (ip), vehicle: saline) 100 % of control.
